Source: patent publication US20250249006A1, “TREATMENT” (Verona Pharma PLC, priority 2024, published 2025)

Experiments:
Assay type in all cases: in vivo
[1] = system: patients aged 40-80 years with moderate to severe COPD; assay: Clinical studies, ensifentrine vs placebo: quality of life responders (SGRQ −4 units) in patients with low FEV1 response; conditions: for Odds in favor of a response, SGRQ (−4 Unit) Responders / Ensifentrine vs. Placebo Odds Ratio, SGRQ (−4 Unit) Responders: logistic regression; for Odds in favor of a response, SGRQ (−4 Unit) Responders / Ensifentrine vs. Placebo Odds Ratio, SGRQ (−4 Unit) Responders / % SGRQ (−4 Unit) Responders / % responders, SGRQ (−4 Units) Responders / Ensifentrine v placebo Odds Ratio, SGRQ (−4 Units) Responders / Odds in favour of response, SGRQ (−4 Units) Responders: pooled mITT; for % SGRQ (−4 Unit) Responders / % responders, SGRQ (−4 Units) Responders: 3 mg BID nebuliser; for % responders, SGRQ (−4 Units) Responders / Ensifentrine v placebo Odds Ratio, SGRQ (−4 Units) Responders / Odds in favour of response, SGRQ (−4 Units) Responders: improvement in morning trough FEV1 less than 40 mL (table line prints <60 mL); for proportion of patients with a clinically important improvement in QoL: over 24 weeks
Experimental: (§1) Clinical studies were conducted to determine the efficacy of ensifentrine in treating COPD compared with placebo. Ensifentrine was administered by nebuliser at a dose of 3 mg twice daily (BID) for 24 weeks. The studies were multi-centre, randomized, double-blind, parallel-group, placebo-controlled trials.
(§2) The study population included patients aged 40-80 years with moderate to severe COPD (FEV1 30%-70% p.n., FEV1/forced vital capacity (FVC) ratio<0.7, with mMRC≥2). The randomization stratified (a) the use of stable background maintenance LAMA or LABA therapy use (approx. 50%. yes or no) and (b) cigarette smoking (current or former). Inhaled corticosteroid (ICS) maintenance therapy was permitted in up to 20% of patients under certain provisions.
(§3) The primary endpoint was change from baseline in average FEV1 area under the curve AUC0-12h post-dose at week 12. Also assessed were COPD symptoms and quality of life (QoL) in patients showing lower responses in terms of lung function, and in particular patients with: (i) improvement in average FEV1 AUC0-12h of less than 100 mL and (ii) improvement in morning trough FEV1 of less than 100 mL, less than 60 mL or less than 40 mL.
COPD symptoms were assessed using Evaluating Respiratory Symptoms (E-RS; EXACT-Respiratory Symptoms, The minimal clinically important difference (MCID) of the E-RS is a total score of −2 units. User Manual (Version 3.0), October 2014) and Transitional Dyspnea Index (TDI; Mahler et al, The MCID of the transition dyspnea index is a total score of one unit. COPD 2005, 2:99-103.) and QoL was assessed using the St. George's Respiratory Questionnaire (SGRQ; Jones, St. George's Respiratory Questionnaire: The MCID of the SGRQ is a total score of −4 units. COPD 2005, 2:75-79.).

[2] = system: patients aged 40-80 years with moderate to severe COPD; assay: Clinical studies, ensifentrine vs placebo: moderate/severe COPD exacerbations; conditions: nominally statistically significant
Experimental: as §1, §2
COPD exacerbations were defined as worsening of 2 or more major symptoms (dyspnea, sputum volume, and sputum purulence) or worsening of any 1 major symptom together with any 1 of the following minor symptoms: sore throat, colds, fever without other cause, and increased cough or wheeze for at least 2 consecutive days. COPD exacerbations were considered to be of moderate severity if treatment with systemic corticosteroids and/or antibiotics was required and were considered to be severe if hospitalization was required.

[3] = system: patients aged 40-80 years with moderate to severe COPD; assay: Clinical studies, ensifentrine vs placebo: lung function (average FEV1 AUC0-12h)
Experimental: as §1, §2
as §3, with “mL. […]” for “mL.”
Average FEV1 AUC0-12h is defined as area under the curve over 12 hours of the FEV1, divided by 12 hours. […] Morning trough FEV1 is defined as the FEV1 assessed at 11.5 to 12 hours following the prior evening dose.

[4] = average FEV1 AUC0-12h <100 mL at Week 12, Week 12
[5] = average FEV1 AUC0-12h <100 mL at Week 12, Week 24
[6] = morning trough FEV1 <60 mL at Week 6, Week 6
[7] = morning trough FEV1 <60 mL at Week 12, Week 12
[8] = morning trough FEV1 <60 mL at Week 24, Week 24
[9] = morning trough FEV1 <100 mL at Week 6, Week 6
[10] = morning trough FEV1 <100 mL at Week 12, Week 12
[11] = morning trough FEV1 <100 mL at Week 24, Week 24

COc1cc2c(cc1OC)-c1c/c(=N\c3c(C)cc(C)cc3C)n(CCNC(N)=O)c(=O)n1CC2 [Ensifentrine, N-(2-{(2E)-9,10-dimethoxy-4-oxo-2-[(2,4,6-trimethylphenyl)imino]-6,7-dihydro-2H-pyrimido[6,1-a]isoquinolin-3(4H)-yl}ethyl)urea]
Odds in favor of a response, SGRQ (−4 Unit) Responders ([1]; average FEV1 AUC0-12h <100 mL at Week 12, Week 6): 1.10
Ensifentrine vs. Placebo Odds Ratio, SGRQ (−4 Unit) Responders [1, 4]: 1.31
Odds in favor of a response, SGRQ (−4 Unit) Responders [1, 4]: 0.92
Ensifentrine vs. Placebo Odds Ratio, SGRQ (−4 Unit) Responders [1, 5]: 1.04
Odds in favor of a response, SGRQ (−4 Unit) Responders [1, 5]: 0.95
% SGRQ (−4 Unit) Responders ([1]; average FEV1 AUC0-12h <100 mL at Week 12, responders at Week 6): 45.4%
% SGRQ (−4 Unit) Responders ([1]; average FEV1 AUC0-12h <100 mL at Week 12, responders at Week 12): 45.4%
% SGRQ (−4 Unit) Responders ([1]; average FEV1 AUC0-12h <100 mL at Week 12, responders at Week 24): 48.5%
% responders, SGRQ (−4 Units) Responders ([1]; Week 6): 42.6%
Ensifentrine v placebo Odds Ratio, SGRQ (−4 Units) Responders ([1]; Week 6): 1.260
Odds in favour of response, SGRQ (−4 Units) Responders ([1]; Week 6): 0.903
% responders, SGRQ (−4 Units) Responders ([1]; Week 12): 44.7%
Ensifentrine v placebo Odds Ratio, SGRQ (−4 Units) Responders ([1]; Week 12): 1.316
Odds in favour of response, SGRQ (−4 Units) Responders ([1]; Week 12): 0.802
% responders, SGRQ (−4 Units) Responders ([1]; Week 24): 48.7%
Ensifentrine v placebo Odds Ratio, SGRQ (−4 Units) Responders ([1]; Week 24): 1.138
Odds in favour of response, SGRQ (−4 Units) Responders ([1]; Week 24): 0.797
proportion of patients with a clinically important improvement in QoL ([1]; increase in average FEV1 AUC0-12h less than 100 mL at Week 12): half
proportion of patients with a clinically important improvement in QoL ([1]; increase in morning trough FEV1 less than 100 mL at Week 12): half
Ensifentrine vs. Placebo Odds Ratio, SGRQ (−4 Unit) Responders [1, 6]: 1.25
Odds in favor of a response, SGRQ (−4 Unit) Responders [1, 6]: 0.98
% SGRQ (−4 Unit) Responders ([1]; morning trough FEV1 <60 mL at Week 6, responders at Week 6): 43.4%
Ensifentrine vs. Placebo Odds Ratio, SGRQ (−4 Unit) Responders [1, 7]: 1.28
Odds in favor of a response, SGRQ (−4 Unit) Responders [1, 7]: 0.82
% SGRQ (−4 Unit) Responders ([1]; morning trough FEV1 <60 mL at Week 12, responders at Week 12): 45.1%
Ensifentrine vs. Placebo Odds Ratio, SGRQ (−4 Unit) Responders [1, 8]: 1.07
Odds in favor of a response, SGRQ (−4 Unit) Responders [1, 8]: 0.79
% SGRQ (−4 Unit) Responders ([1]; morning trough FEV1 <60 mL at Week 24, responders at Week 24): 48.2%
Ensifentrine vs. Placebo Odds Ratio, SGRQ (−4 Unit) Responders [1, 9]: 1.29
Odds in favor of a response, SGRQ (−4 Unit) Responders [1, 9]: 1.09
% SGRQ (−4 Unit) Responders ([1]; morning trough FEV1 <100 mL at Week 6, responders at Week 6): 45.0%
Ensifentrine vs. Placebo Odds Ratio, SGRQ (−4 Unit) Responders [1, 10]: 1.34
Odds in favor of a response, SGRQ (−4 Unit) Responders [1, 10]: 0.80
% SGRQ (−4 Unit) Responders ([1]; morning trough FEV1 <100 mL at Week 12, responders at Week 12): 46.3%
Ensifentrine vs. Placebo Odds Ratio, SGRQ (−4 Unit) Responders [1, 11]: 1.03
Odds in favor of a response, SGRQ (−4 Unit) Responders [1, 11]: 0.77
% SGRQ (−4 Unit) Responders ([1]; morning trough FEV1 <100 mL at Week 24, responders at Week 24): 48.1%
reduction in moderate/severe exacerbation rate and risk (time to first event) vs placebo ([2]; patients with improvement in average FEV1 AUC0-12h less than 100 mL): 37%
reduction in moderate/severe exacerbation rate and risk (time to first event) vs placebo ([2]; patients with improvement in morning trough FEV1 less than 100 mL): approximately 40%
primary endpoint of average FEV1 (AUC)0-12h ([3]; Week 12, 3 mg BID nebuliser vs placebo): met
improvement in lung function ([3]; all subgroups): statistically significant
